For assay [1], the system named is DLD-1 BRCA2−/− cells. The assay is described as follows: Homologous recombination synthetic lethal inhibition of proliferation, DLD-1 BRCA2-/- (Cell Titre Glo 3D). Format: cell-based. As to conditions: Homo sapiens. The procedure, abridged: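 Read-out: CellTiter-Glo 3D luminescence, day 7 for wt DLD-1, day 12 for BRCA2−/−, about 8-9 population doublings each. Seeding 1,500 or 3,000 cells/mL respectively. Dose range 10 μM–0.51 nM, 3-fold, 10 points, with re-dosing on day 6. IC50 from curve fit.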

The test system of assay [2] is DLD-1 cells. Nature of the assay: Inhibition of proliferation, DLD-1 BRCA2 wt control (Cell Titre Glo 3D). Format: cell-based. As to conditions: Homo sapiens. From the text: This assay identifies anti-proliferative effects of POLQ compounds in the homologous recombination deficient colorectal cell line DLD-1 BRCA2−/− over 8-9 population doublings (7 days for DLD-1 and 12 days for DLD-1 BRCA2−/−). DLD1 BRCA2 wt are used as a control to detect cell toxic effects not specific to homologous recombination deficiency.
DLD-1 BRCA2−/− and DLD-1 cells were kept in continuous culture in Assay Medium (RPMI 1640 phenol red free (Sigma R7509) containing 1% GlutaMAX (Gibco 35050) and 10% Foetal Bovine Serum (Gibco 10270-106)). On the day of the assay cells in culture of ˜80-90% confluent were used. Cell monolayers were washed with 10 mL PBS, then removed and added 2 mL TrypLE Express (Gibco 12604). The cells with TrypLE Express were incubated for 5 minutes in cell culture incubator and then the detached cells resuspend in 15 mL Assay Medium. Cells were counted using a ViCell and the cell images were monitored for clumps of cells, ideally they should be single or <3 cell clusters. The cells were diluted to 3,000 cells/mL of DLD-1 BRCA2−/− and 1,500 cells/mL of DLD-1 in Assay Medium and 100 μL added per well of transparent bottomed, black, tissue culture-treated 96-well plates (CoStar, No. 3904) Assay Ready Plates. The Assay Ready Plates contain a 10 point 10 μM to 0.51 nM dose range with three-fold dilutions in DMSO with a final volume of 100 nL. The plates were incubated at 37° C. with 5% C02 for 6 days. On day 6, 100 μL/well of Assay Medium was added to duplicate Assay Ready Plates. 90 μL of culture medium was removed from the cell plates and replenished with the Assay Media and compounds from the duplicate Assay Ready Plates using the Bravo. The plates were further incubated at 37° C. with 5% CO2. On day 7 the plates containing DLD-1 and Cell Titre Glo 3D (Promega G9683) were equilibrated to room temperature, then 60 μL of Cell Titre Glo 3D was added per well and incubated on a shaking platform for 30 min. Plates were read on the Envision measuring luminescence for 1 second per well. On day 12 the plates containing DLD-1 BRCA2−/− cells and Cell Titre Glo 3D (Promega G9683) were equilibrated to room temperature, then 60 μL Cell Titre Glo 3D added per well and incubated on a shaking platform for 30 min. Plates were read on the Envision measuring luminescence for 1 second per well. The data was exported into a suitable software package (such as Genedata) to perform curve fitting analysis. Inhibition of cell proliferation was expressed as an IC5o value and was determined by calculation of the concentration of compound that was required to give a 50% reduction of the average maximum Total Intensity signal.

The mark [3] stands for this setting: DLD-1, proliferation, luminescence, taken as DLD-1 BRCA2-/-, read-out: POLQ PD Prolif Lumin (converted).
Setting [4] is: DLD-1, proliferation, luminescence, second Prolif column (c6), taken as DLD-1 BRCA2 wt control, read-out: POLQ PD Prolif Lumin (converted).
[5] abbreviates: DLD-1, first proliferation column (c5), DLD-1 BRCA2-/-, read-out: POLQ PD Prolif Lumin (converted).
Setting [6] is: DLD-1, second proliferation column (c6), DLD-1 BRCA2 wt control, read-out: POLQ PD Prolif Lumin (converted).
[7] abbreviates: DLD-1, DLD-1 BRCA2 −/−, mean, read-out: POLQ PD Prolif Lumin BRCA2 −/− mean pIC50 (converted).
[8] abbreviates: DLD-1, DLD1 BRCA2 wt, mean, read-out: POLQ PD Prolif Lumin DLD1 mean pIC50 (converted).

Like-named read-outs stand apart in the source and are kept apart here.

The source of these data is patent publication US20250195530A1, “POLQ INHIBITORS” (ASTRAZENECA AB, priority 2022, published 2025).

`CC(CCOc1cccc(-c2nc3c(OC4(C)CC4)ncnc3n2Cc2cccc(Cl)c2)c1Cl)C(=O)O` (racemic) [Example T293, 4-(2-chloro-3-(9-(3-chlorobenzyl)-6-(1-methylcyclopropoxy)-9H-purin-8-yl)phenoxy)-2-methylbutanoic acid]: the IC50 in assay [1] (DLD-1, DLD-1 BRCA2-/- proliferation, column head only partly shown, read-out: POLQ PD Prolif Lumin (converted)) is 31.6 nM; in assay [2] (DLD-1, DLD-1 BRCA2 wt control proliferation, column head only partly shown, read-out: POLQ PD Prolif Lumin (converted)), over 3160 nM.

Regarding `CC(OCCOc1ccc(-c2nc3c(OC4(C)CC4)ncnc3n2Cc2cccc(Cl)c2)c(Cl)c1)C(=O)O` (racemic) [Example T305, rac-(R)-2-(2-(3-chloro-4-(9-(3-chlorobenzyl)-6-(1-methylcyclopropoxy)-9H-purin-8-yl)phenoxy)ethoxy)propanoic acid], the IC50 was 794 nM in assay [1] (DLD-1, first proliferation column (c5), taken as DLD-1 BRCA2-/-, read-out: POLQ PD Prolif Lumin (converted)) and over 10000 nM in assay [2] (DLD-1, second proliferation column (c6), taken as DLD-1 BRCA2 wt, read-out: POLQ PD Prolif Lumin (converted)).

Regarding `CC(CCOc1ccc(-c2nc3c(OC4(C)CC4)ncnc3n2Cc2cc(C(F)(F)F)ccc2F)c(Cl)c1)C(=O)O` (racemic) [Example T395, 4-(3-chloro-4-(9-(2-fluoro-5-(trifluoromethyl)benzyl)-6-(1-methylcyclopropoxy)-9H-purin-8-yl)phenoxy)-2-methylbutanoic acid], the results for the IC50 in assay [1] (setting [3]) and in assay [2] (setting [4]) were 100 nM and over 10000 nM, respectively.

Take `CC(CCOc1ccc(-c2nc3c(OC4(C)CC4)ncnc3n2Cc2cccc(C#N)c2)c(Cl)c1)C(=O)O` (racemic) [Example T399, 4-(3-chloro-4-(9-(3-cyanobenzyl)-6-(1-methylcyclopropoxy)-9H-purin-8-yl)phenoxy)-2-methylbutanoic acid]: the results for the IC50 in assay [1] (setting [3]) and in assay [2] (setting [4]) were 316 nM and over 10000 nM, respectively.

For `CC(CCOc1ccc(-c2nc3c(OC4(C)CC4)ncnc3n2Cc2ccccc2C#N)c(Cl)c1)C(=O)O` (racemic) [Example T400, 4-(3-chloro-4-(9-(2-cyanobenzyl)-6-(1-methylcyclopropoxy)-9H-purin-8-yl)phenoxy)-2-methylbutanoic acid], the IC50 in assay [1] (setting [3]) was 251 nM; in assay [2] (setting [4]), over 10000 nM.

Take `Cc1ccc(F)c(Cn2c(-c3ccc(OCCC(C)C(=O)O)cc3Cl)nc3c(OC4(C)CC4)ncnc32)c1` (racemic) [Example T417, 4-(3-chloro-4-(9-(2-fluoro-5-methylbenzyl)-6-(1-methylcyclopropoxy)-9H-purin-8-yl)phenoxy)-2-methylbutanoic acid]: the results for the IC50 in assay [1] (setting [3]) and in assay [2] (setting [4]) were 50.1 nM and over 10000 nM, respectively.

With `CC(CCOc1ccc(-c2nc3c(OC4(C)CC4)ncnc3n2Cc2cc(C(F)(F)F)cc(C(F)(F)F)c2)c(Cl)c1)C(=O)O` (racemic) [Example T533, 4-(4-(9-(3,5-bis(trifluoromethyl)benzyl)-6-(1-methylcyclopropoxy)-9H-purin-8-yl)-3-chlorophenoxy)-2-methylbutanoic acid], the IC50 in assay [1] (setting [5]) was 398 nM; in assay [2] (setting [6]), over 3160 nM.

`CC(CCOc1ccc(-c2nc3c(OC4(C)CC4)ncnc3n2Cc2cccc(C(C)(F)F)c2)c(Cl)c1)C(=O)O` (racemic) [Example T544, 4-(3-chloro-4-(9-(3-(1,1-difluoroethyl)benzyl)-6-(1-methylcyclopropoxy)-9H-purin-8-yl)phenoxy)-2-methylbutanoic acid]: the IC50 was 501 nM in assay [1] (setting [5]) and over 10000 nM in assay [2] (setting [6]).

Turning to `CC(C)C(CCOc1ccc(-c2nc3c(OC4(C)CC4)ncnc3n2Cc2cccc(Cl)c2)c(Cl)c1)C(=O)O` (racemic) [Example T566, 4-(3-chloro-4-(9-(3-chlorobenzyl)-6-(1-methylcyclopropoxy)-9H-purin-8-yl)phenoxy)-2-isopropylbutanoic acid], the figures for the IC50 in assay [1] (setting [5]) and in assay [2] (setting [6]) were 158 nM and over 10000 nM, respectively.

On to `Cc1cccc(C)c1Cn1c(-c2ccc(OCCC(C)C(=O)O)cc2Cl)nc2c(OC3(C)CC3)ncnc21` (racemic) [Example T571, 4-(3-chloro-4-(9-(2,6-dimethylbenzyl)-6-(1-methylcyclopropoxy)-9H-purin-8-yl)phenoxy)-2-methylbutanoic acid], for which the IC50 in assay [1] (setting [5]) was 1260 nM; in assay [2] (setting [6]) it was over 10000 nM.

On to `CC(CCOc1ccc(-c2nc3c(OC4(C)CC4)ncnc3n2Cc2ccccc2C2CC2)c(Cl)c1)C(=O)O` (racemic) [Example T598, 4-(3-chloro-4-(9-(2-cyclopropylbenzyl)-6-(1-methylcyclopropoxy)-9H-purin-8-yl)phenoxy)-2-methylbutanoic acid], for which the IC50 in assay [1] (DLD-1, first proliferation column, DLD-1 BRCA2-/-, read-out: POLQ PD Prolif Lumin (converted)) is 631 nM; in assay [2] (DLD-1, second proliferation column, DLD-1 BRCA2 wt control, read-out: POLQ PD Prolif Lumin (converted)), over 10000 nM.

In the case of `COc1ccc(C)cc1Cn1c(-c2ccc(OCCC(C)C(=O)O)cc2Cl)nc2c(OC3(C)CC3)ncnc21` (racemic) [Example U1, 4-(3-chloro-4-(9-(2-methoxy-5-methylbenzyl)-6-(1-methylcyclopropoxy)-9H-purin-8-yl)phenoxy)-2-methylbutanoic acid], the IC50 was 50.1 nM in assay [1] (setting [7]) and over 10000 nM in assay [2] (setting [8]).

With `COc1ccc(F)cc1Cn1c(-c2ccc(OCCC(C)C(=O)O)cc2Cl)nc2c(OC3(C)CC3)ncnc21` (racemic) [Example U2, 4-(3-chloro-4-(9-(5-fluoro-2-methoxybenzyl)-6-(1-methylcyclopropoxy)-9H-purin-8-yl)phenoxy)-2-methylbutanoic acid], the IC50 in assay [1] (setting [7]) was 63.1 nM; in assay [2] (setting [8]), over 10000 nM.

In the case of `CC(CCOc1ccc(-c2nc3c(OC4(C)CC4)ncnc3n2Cc2cc(Cl)ccc2C#N)c(Cl)c1)C(=O)O` (racemic) [Example U9, 4-(3-chloro-4-(9-(5-chloro-2-cyanobenzyl)-6-(1-methylcyclopropoxy)-9H-purin-8-yl)phenoxy)-2-methylbutanoic acid], the figures for the IC50 in assay [1] (setting [7]) and in assay [2] (setting [8]) were 79.4 nM and over 10000 nM, respectively.

Regarding `CC(CCOc1ccc(-c2nc3c(OC4(C)CC4)ncnc3n2Cc2c(F)cccc2C#N)c(Cl)c1)C(=O)O` (racemic) [Example U13, 4-(3-chloro-4-(9-(2-cyano-6-fluorobenzyl)-6-(1-methylcyclopropoxy)-9H-purin-8-yl)phenoxy)-2-methylbutanoic acid], the IC50 in assay [1] (setting [7]) was 3160 nM; in assay [2] (setting [8]), over 10000 nM.

For `COc1ccc(C#N)cc1Cn1c(-c2ccc(OCCC(C)C(=O)O)cc2Cl)nc2c(OC3(C)CC3)ncnc21` (racemic) [Example U14, 4-(3-chloro-4-(9-(5-cyano-2-methoxybenzyl)-6-(1-methylcyclopropoxy)-9H-purin-8-yl)phenoxy)-2-methylbutanoic acid], the IC50 is 398 nM in assay [1] (setting [7]) and over 10000 nM in assay [2] (setting [8]).

Turning to `COc1ccc(Cl)cc1Cn1c(-c2ccc(OCC(C)CC(=O)O)cc2Cl)nc2c(OC3(C)CC3)ncnc21` (racemic) [Example U42, 4-(3-chloro-4-(9-(5-chloro-2-methoxybenzyl)-6-(1-methylcyclopropoxy)-9H-purin-8-yl)phenoxy)-3-methylbutanoic acid], the IC50 in assay [1] (setting [7]) is 39.8 nM; in assay [2] (setting [8]) it was over 10000 nM.

Consider `COc1ccc(Cl)cc1Cn1c(-c2cccc(CCCC(C)C(=O)O)c2Cl)nc2c(OC3(C)CC3)ncnc21` (racemic) [Example U55, 5-(2-chloro-3-(9-(5-chloro-2-methoxybenzyl)-6-(1-methylcyclopropoxy)-9H-purin-8-yl)phenyl)-2-methylpentanoic acid], for which the figures for the IC50 in assay [1] (setting [7]) and in assay [2] (setting [8]) were 126 nM and over 10000 nM, respectively.
